Data as given in patent US10822374B2, “Cancer therapies and diagnostics” (Dana-Farber Cancer Institute, Inc., priority 2010, dated 2020).
“Also recorded” adds a separate entry of the source. Where two headings read alike, the source gives them in different places. Positions of bridges follow the written chain, without caps; N, C: chain ends. Non-standard residues stand in square brackets, D forms with d. No end group written: not given here. R8 = C=CCCCCCC[C@@](C)(N)C(=O)O; S5 = C=CCCC[C@](C)(N)C(=O)O

How the values were obtained:
[1] = system: HCT116 cells; test: CellTiter-Glo viability, HCT116; format: cell-based, human; settings: HCT116 (HDM2+/HDMX+), 24 h
Method: (§1) All viability assays were performed in at least triplicate.

[2] = system: SJSA-X cells; test: CellTiter-Glo viability, SJSA-X; format: cell-based, human; settings: SJSA-X (HDM2++/HDMX++), 24 h
Method: as §1

[3] = system: MCF-7 cells; test: CellTiter-Glo viability, MCF-7; format: cell-based, human; settings: MCF-7 (HDM2+/HDMX+), 24 h
Method: as §1

[4] = system: bearing the R273H p53 mutation; test: CellTiter-Glo viability, A431; format: cell-based, human; settings: A431, inactivating p53 point mutation, 24 h
Method: (§2) Finally, WS1 normal human fibroblasts were tested to evaluate relative toxicity in tumor versus non-transformed cells.
(§3) Cultured cells were maintained in the appropriate media (SJSA-1, SJSA-X, SJSA-DD, A431 (DMEM); JEG-3, MCF-7, WS1 (EMEM); HCT116 (McCoy's 5A)) supplemented with fetal calf serum and penicillin/streptomycin. […] Viability was assayed by addition of CellTiter-Glo™ chemiluminescence reagent according to the manufacturer's protocol (Promega). Luminescence was measured using a Spectramax M5 microplate reader (Molecular Devices). […] All viability assays were performed in at least triplicate.

[5] = system: SJSA-DD cells; test: CellTiter-Glo viability, SJSA-DD; format: cell-based, human; settings: SJSA-1 overexpressing dominant negative p53 (SJSA-DD), 24 h
Method: as §2, §3

[6] = target: T1, full-length HDMX (Homo sapiens, UniProt O15151); test: Fluorescence polarization direct binding to HDMX; settings: FITC-labeled peptides, same dose ranges
T1 construct: plasmid encoding full-length HDMX with N-terminal thioredoxin, S, and hexahistidine tags; thioredoxin (N, cleaved yes); S-tag (N, cleaved yes); hexahistidine (N, cleaved yes); made in house; host or cells: Escherichia coli BL21 (DE3) pLysS, pET32-LIC vector
T1 sequence (O15151 1-490): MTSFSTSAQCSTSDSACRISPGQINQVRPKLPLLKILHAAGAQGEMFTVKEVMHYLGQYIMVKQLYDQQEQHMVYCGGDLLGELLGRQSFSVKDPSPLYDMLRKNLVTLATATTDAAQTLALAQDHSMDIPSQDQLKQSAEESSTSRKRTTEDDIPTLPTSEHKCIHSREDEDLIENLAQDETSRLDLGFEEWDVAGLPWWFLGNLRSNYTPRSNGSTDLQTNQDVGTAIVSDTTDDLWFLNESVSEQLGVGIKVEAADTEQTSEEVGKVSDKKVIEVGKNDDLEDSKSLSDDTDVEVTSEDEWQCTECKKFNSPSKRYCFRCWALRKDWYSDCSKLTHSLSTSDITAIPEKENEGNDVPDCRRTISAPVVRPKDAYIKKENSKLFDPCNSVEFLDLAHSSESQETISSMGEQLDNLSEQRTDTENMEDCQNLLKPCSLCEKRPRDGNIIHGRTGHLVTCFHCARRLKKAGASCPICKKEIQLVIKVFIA
Method: Fluorescence polarization was then measured at equilibrium on a SpectraMax M5 microplate reader (Molecular Devices).

[7] = system: JEG-3 cells; test: CellTiter-Glo viability, JEG-3; format: cell-based, human; settings: JEG-3 (HDM2−/HDMX++), 24 h
Method: as §1

[8] = system: SJSA-1 cells; test: CellTiter-Glo viability, SJSA-1; format: cell-based, human; settings: SJSA-1 (HDM2++/HDMX−), 24 h
Method: as §1

[9] = system: HCT116 cells deficient in p53; test: CellTiter-Glo viability, HCT116 deficient in p53; format: cell-based, human; settings: HCT116 with genetic deletion of p53, 24 h
Method: as §2, §3

[10] = system: WS1 normal human fibroblasts; test: CellTiter-Glo viability, WS1 fibroblasts
Method: as §2, §3

[11] = system: SJSA-X cells; test: FITC-peptide detection in SJSA-X cellular lysates (cell penetration); settings: 12 hours
Method: Cells were then lysed and anti-FITC pull down was performed, followed by HDM2 and HDMX western analyses.

[12] = target: T2, HDMX (Homo sapiens, UniProt O15151); test: Anti-FITC pull down in SJSA-X cells, HDMX western; format: cell-based; settings: 15 μM, 12 hours
T2 construct: expressed in transfected cells; host or cells: SJSA-X (SJSA-1 engineered to overexpress HDMX)
T2 sequence (O15151 1-490): T1 sequence (O15151 1-490)

[13] = target: T3, HDM2 (Homo sapiens, UniProt Q00987); test: Anti-FITC pull down in SJSA-X cells, HDM2 western; format: cell-based; settings: 15 μM, 12 hours
T3 construct: endogenous in cells; host or cells: SJSA-X (derivative of SJSA-1 osteosarcoma)

[14] = system: HDM2, p21, and MIC-1; test: qPCR of p53 targets in excised JEG-3 tumors; settings: tumors excised day 5
[15] = system: JEG-3 cells; test: Caspase-3/7 activation in JEG-3 cells; format: cell-based, human; settings: JEG-3, 0.3-10 μM, 12 h
Method: Apoptosis studies were performed as follows.

[16] = system: RKO or SJSA-1 cancer cells; test: Cell viability assays, RKO or SJSA-1 cancer cells; format: cell-based
[17] = system: p53 transcriptional targets HDM2, p21, MIC-1; test: qPCR of p53 transcriptional targets in JEG-3 cells; settings: JEG-3, 20 μM, 6 h
Method: qPCR studies were performed as follows. […] Total RNA was reverse transcribed to cDNA using Superscript III reverse transcriptase (Invitrogen). The derived cDNA was employed as the substrate to measure relative transcript levels by qRT-PCR on a PRISM 7700 system using SYBR Green PCR Master Mix (Applied Biosystems). Primers specific for HDM2, p21, MIC-1, and the UBB control were employed. Triplicate reactions were prepared in 96-well optical PCR plates.

[18] = system: p53; test: p53 western of JEG-3 cellular extracts (input); format: cell-based, human; settings: JEG-3, 20 μM, 6 hours
Method: ; Bethyl Laboratories) and western analysis of electrophoresed protein was conducted using p53 (DO-1; EMD Chemicals or FL-393; Santa Cruz Biotechnology), HDMX (MDMX-82; Abcam), and HAUSP (anti-USP7, Bethyl Labs) antibodies, and Western Lightning chemiluminescence reagent (PerkinElmer). […]

[19] = system: JEG-3 xenografts; test: JEG-3 murine xenograft tumor growth; settings: 10 mg/kg i.v. once daily for 4 days
[20] = system: p53; test: p53 western in MCF-7 cells; format: cell-based, human; settings: MCF-7, 20 μM
Method: FIG. 8 is an image of an immunoblot showing that pharmacologic induction of p53-HDMX complexes sensitizes Nutlin-3-resistant cancer cells to HDMX inhibition. […]. Cells were exposed to MG-132 at 10 μM for 6 hours to induce HDMX-p53 complex formation. Cellular extracts (input-left side immunoblot) and anti-HDMX immunoprecipitates (IP:HDMX-right side immunoblot) were analyzed by SDS-PAGE and Western blotting. Levels of p53 and HAUSP are shown.

[21] = Proteolytic stability; format: in vitro ADME
Source text: The amide bond of the peptide backbone is susceptible to hydrolysis by proteases, thereby rendering peptidic compounds vulnerable to rapid degradation in vivo. Peptide helix formation, however, typically buries the amide backbone and therefore may shield it from proteolytic cleavage. The peptidomimetic macrocycles of the present invention may be subjected to in vitro trypsin proteolysis to assess for any change in degradation rate compared to a corresponding uncrosslinked polypeptide. For example, the peptidomimetic macrocycle and a corresponding uncrosslinked polypeptide are incubated with trypsin agarose and the reactions quenched at various time points by centrifugation and subsequent HPLC injection to quantitate the residual substrate by ultraviolet absorption at 280 nm. Briefly, the peptidomimetic macrocycle and peptidomimetic precursor (5 mcg) are incubated with trypsin agarose (Pierce) (S/E~125) for 0, 10, 20, 90, and 180 minutes. Reactions are quenched by tabletop centrifugation at high speed; remaining substrate in the isolated supernatant is quantified by HPLC-based peak detection at 280 nm.

T3 sequence (Q00987 whole entry): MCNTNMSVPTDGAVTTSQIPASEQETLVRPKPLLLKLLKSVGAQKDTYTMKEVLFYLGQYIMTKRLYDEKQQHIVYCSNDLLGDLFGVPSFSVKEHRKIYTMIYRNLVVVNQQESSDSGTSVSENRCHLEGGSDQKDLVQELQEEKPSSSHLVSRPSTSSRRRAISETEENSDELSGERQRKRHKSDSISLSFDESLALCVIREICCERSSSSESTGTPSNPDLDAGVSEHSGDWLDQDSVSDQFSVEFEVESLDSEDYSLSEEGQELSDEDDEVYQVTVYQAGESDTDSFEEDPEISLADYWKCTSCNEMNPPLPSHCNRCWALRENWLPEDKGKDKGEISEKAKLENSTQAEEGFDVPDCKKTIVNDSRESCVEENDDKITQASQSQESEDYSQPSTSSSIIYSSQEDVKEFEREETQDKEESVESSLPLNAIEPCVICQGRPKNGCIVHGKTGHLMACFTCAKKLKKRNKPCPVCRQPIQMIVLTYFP

SAH-p53-8F19A: negative control peptide: SAH-p53-8 with F19 substituted by alanine (SEQ ID NO: 13) (QSQQTA[R8]NLWRLL[S5]QN; staple 7-14)
cell viability [1]: inactive | cell viability [2]: inactive | cell viability [3]: inactive | cell viability [4]: inactive | cell viability [5]: inactive | interaction with HDMX [6]: no interaction | cell viability [7]: inactive | cell viability [8]: inactive | cell viability [9]: inactive | viability of normal human fibroblasts [10]: inactive

CC(C)C[C@@H]1NC(=O)[C@H](CCCNC(=N)N)NC(=O)[C@H](Cc2c[nH]c3ccccc23)NC(=O)[C@H](CC(C)C)NC(=O)[C@H](CC(N)=O)NC(=O)[C@](C)(NC(=O)[C@H](Cc2ccccc2)NC(=O)[C@@H](NC(=O)[C@H](CCC(N)=O)NC(=O)[C@H](CCC(N)=O)NC(=O)[C@H](CO)NC(=O)[C@H](CCC(N)=O)NC(=O)CCNC(=S)Nc2ccc3c(c2)C(=O)OC32c3ccc(O)cc3Oc3cc(O)ccc32)[C@@H](C)O)CCCCCCC=CCCC[C@@](C)(C(=O)N[C@@H](CCC(N)=O)C(=O)N[C@@H](CC(N)=O)C(N)=O)NC(=O)[C@H](CC(C)C)NC1=O [FITC-SAH-p53-8]
penetration of intact SJSA-X cells [11]: efficiently penetrated intact SJSA-X cells | co-immunoprecipitation of native HDMX [12]: specifically co-immunoprecipitated | co-immunoprecipitation of native HDM2 [13]: specifically co-immunoprecipitated

SAH-p53-8: i, i+7 hydrocarbon-stapled p53 transactivation domain peptide (SEQ ID NO: 10), S20 and P27 replaced with olefinic residues
cell viability [1]: dose-dependent inhibition of cell viability | cell viability [2]: dose-dependent inhibition of cell viability; also recorded: restoring susceptibility | cell viability [3]: dose-dependent inhibition of cell viability | cell viability [4]: similarly unaffected | transcriptional activation of HDM2, p21, and MIC-1 in tumors [14]: statistically significant transcriptional activation | caspase-3/7 activation [15]: dose-responsive activation of caspase-3/7 | cell viability [16]: promoted cell death | upregulation of p53 transcriptional targets (mRNA) compared to vehicle [17]: 5-14 fold | cell viability [5]: completely insensitive | p53 levels [18]: increase in p53 levels | cell viability [7]: dose-dependent inhibition of cell viability; also recorded: most sensitive | tumor growth [19]: significantly suppressed tumor growth | reduction in tumor burden compared to vehicle and Nutlin-3 ([19]; 5-day evaluation): 37-46% | cell viability [8]: dose-dependent inhibition of cell viability | cell viability [9]: completely insensitive

COc1ccc(C2=N[C@@H](c3ccc(Cl)cc3)[C@@H](c3ccc(Cl)cc3)N2C(=O)N2CCNC(=O)C2)c(OC(C)C)c1 [Nutlin-3, reference compound]
cell viability [1]: modestly sensitive | cell viability [2]: little to no response; also recorded: ineffective as a single agent | cell viability [3]: modestly sensitive | caspase-3/7 activation [15]: little effect | upregulation of p53 transcriptional targets (mRNA) compared to vehicle [17]: 1.5-4 fold | cell viability [5]: completely insensitive | p53 levels [18]: increase in p53 levels | cell viability [7]: little to no response; also recorded: most resistant | p53 levels [20]: elevate p53 levels | tumor growth [19]: not affected | cell viability [8]: very sensitive | viability of normal human fibroblasts ([10]; WS1, 24 h): no impact

CC(=O)N[C@@H](CC(C)C)C(=O)N[C@@H](CO)C(=O)N[C@@H](CCC(N)=O)C(=O)N[C@@H](CCC(=O)O)C(=O)N[C@H](C(=O)N[C@@H](Cc1ccccc1)C(=O)N[C@]1(C)CCCCCCC=CCCC[C@@](C)(C(=O)N[C@@H](CCC(=O)O)C(=O)N[C@@H](CC(N)=O)C(N)=O)NC(=O)[C@H](CC(C)C)NC(=O)[C@H](CC(C)C)NC(=O)[C@H](CCCCN)NC(=O)[C@H](Cc2c[nH]c3ccccc23)NC(=O)[C@H](CC(C)C)NC(=O)[C@H](CC(=O)O)NC1=O)[C@@H](C)O [SAH-p53-4]
proteolytic stability [21]: improved proteolytic stability
